Results on 13 compounds are retold here after ChEMBL document CHEMBL1201862, “PubChem BioAssay data set” (2004).

Some test systems named below: A549; OVCAR-4; UACC-62; HCC 2998; SF-539; CCRF-CEM; OVCAR-5; IGROV-1; NCI-H522; SK-MEL-5; OVCAR-8; NCI/ADR-RES; HOP-92; MDA-N; EKVX; PC-3; T47D; A498; Hs-578T.
Common to all, as to test: inhibition of tumour cell growth, NCI panel, 48 h

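Briefly, cells in 96-well plates were exposed to five compound concentrations for 48 h, and endpoints were estimated by linear interpolation. Abbreviation: GI50, concentration required for 50% inhibition of growth.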 Activity calls are given as the source filed them. Cut-off read from the data, not from the text of the source: active = GI50 up to about 1.1 µM and inactive = higher. Some results are limits rather than exact numbers.

As to `C=C[C@@]1(C)CCC2(O)C(CCC3C2(C)CCC[C@@]3(C)COC(=O)CC(=O)OC)C1` (stereo partly drawn), the GI50 with A549 is 17.6 µM (inactive); in the experiment with OVCAR-4, 17.5 µM (inactive); with UACC-62 it was 17.2 µM (inactive); with HCC 2998 it was 61.4 µM (inactive); in the experiment on SF-539, 19.6 µM (inactive); in the experiment with CCRF-CEM, 32.7 µM (inactive). For the same compound, the GI50 with OVCAR-5 is 20.1 µM (inactive); in the experiment with IGROV-1, 26.5 µM (inactive); with NCI-H522 it was 16.3 µM (inactive); with SK-MEL-5 it was 18 µM (inactive); with OVCAR-8, 23.1 µM (inactive).
With `COC(=O)[C@]1(c2cc3ccccc3[nH]2)CC2CN(C(=O)OCc3ccccc3)C1C=C2OC` (stereo partly drawn), the GI50 in the experiment on NCI/ADR-RES is 38.3 µM (inactive); in the experiment with A549, 31.5 µM (inactive); with OVCAR-4, 24.9 µM (inactive); in the experiment with UACC-62, 16.8 µM (inactive); in the experiment with HCC 2998, 21.5 µM (inactive); with SF-539 it was 25.4 µM (inactive). Also, the GI50 was 24.8 µM (inactive) in the experiment on CCRF-CEM; 21.3 µM (inactive) in the experiment on OVCAR-5; 42.7 µM (inactive) with IGROV-1; 27.2 µM (inactive) with NCI-H522; 32.5 µM (inactive) in the experiment on HOP-92; 32.3 µM (inactive) in the experiment on MDA-N. Moreover, the GI50 in the experiment on OVCAR-8 was 43.4 µM (inactive); in the experiment on EKVX, 36.5 µM (inactive); in the experiment with PC-3 it was 26.7 µM (inactive); in the experiment with T47D it was 35.8 µM (inactive).
Consider `COC1CCCc2c(OC(C)=O)ccc(OC(C)=O)c21` (stereo not drawn), for which the GI50 in the experiment with A549 is > 100 µM (inactive); in the experiment with OVCAR-4 it was 35 µM (inactive); in the experiment with UACC-62 it was > 100 µM (inactive); with HCC 2998 it was > 100 µM (inactive); with OVCAR-5, > 100 µM (inactive); in the experiment with IGROV-1, > 100 µM (inactive). Also, the GI50 is 19.6 µM (inactive) in the experiment on HOP-92 and > 100 µM (inactive) in the experiment on SK-MEL-5.
In the case of `COc1cc(Nc2nc3cc(C(F)(F)F)ccc3nc2-c2ccccc2)cc(OC)c1OC`, the GI50 in the experiment on A549 was 92.3 µM (inactive); in the experiment on OVCAR-4, 5.82 µM (inactive); with UACC-62, 75.2 µM (inactive); with HCC 2998, > 100 µM (inactive); in the experiment with SF-539, 54.8 µM (inactive); in the experiment with CCRF-CEM, > 100 µM (inactive). Further, the GI50 in the experiment with OVCAR-5 is > 100 µM (inactive); in the experiment with IGROV-1, 27 µM (inactive); in the experiment with NCI-H522, 37.8 µM (inactive); in the experiment on HOP-92, 1.82 µM (inactive); in the experiment on SK-MEL-5, 34.4 µM (inactive); in the experiment on OVCAR-8 it was > 100 µM (inactive). The GI50 was > 100 µM (inactive) with A498 and 24.3 µM (inactive) in the experiment on EKVX.
Consider `O=C(Nc1nc(C23CC4CC(CC(C4)C2)C3)cs1)c1cc2cc(Cl)ccc2oc1=O`, for which the GI50 with NCI/ADR-RES, in the experiment on A549, with OVCAR-4, in the experiment on HCC 2998, with SF-539 and with CCRF-CEM was > 100 µM (inactive) throughout. The GI50 in the experiment with OVCAR-5, in the experiment with IGROV-1, in the experiment on NCI-H522, with HOP-92, in the experiment on SK-MEL-5 and in the experiment with MDA-N was > 100 µM (inactive) throughout. Also, the GI50 with Hs-578T was 71.1 µM (inactive); in the experiment on OVCAR-8, > 100 µM (inactive); in the experiment with A498, > 100 µM (inactive); in the experiment with EKVX, > 100 µM (inactive); in the experiment on PC-3 it was > 100 µM (inactive).
In the case of `CN(C)S(=O)(=O)Nc1ccccn1`, the GI50 in the experiment on NCI/ADR-RES, in the experiment with A549, in the experiment on OVCAR-4, in the experiment with UACC-62, with HCC 2998 and in the experiment with SF-539 was > 100 µM (inactive) throughout. For the same compound, the GI50 in the experiment on OVCAR-5, in the experiment with IGROV-1, in the experiment on NCI-H522, in the experiment with HOP-92, with SK-MEL-5 and with MDA-N was > 100 µM (inactive) in each case. The GI50 in the experiment with Hs-578T, with OVCAR-8, in the experiment on A498, in the experiment on EKVX and with PC-3 was > 100 µM (inactive) in each case.
On to `O=C1Nc2ccc(Cl)cc2C(=O)N2CCC[C@@H]12`, for which the GI50 in the experiment with NCI/ADR-RES, with A549, with OVCAR-4, in the experiment with UACC-62, in the experiment with HCC 2998 and in the experiment with OVCAR-5 was > 100 µM (inactive) throughout. Further, the GI50 in the experiment with IGROV-1, in the experiment on NCI-H522, with HOP-92, in the experiment with SK-MEL-5, in the experiment with MDA-N and in the experiment with OVCAR-8 was > 100 µM (inactive) in each case. Also, the GI50 in the experiment with A498, in the experiment with EKVX, with PC-3 and with T47D was > 100 µM (inactive) in each case.
`[N-]=[N+]=CC(=O)CCC(=O)N(c1ccccc1)c1ccccc1`: the GI50 in the experiment with A549, with SF-539, with CCRF-CEM, in the experiment on OVCAR-5, with IGROV-1 and in the experiment on HOP-92 was > 10 µM (inactive) throughout. Moreover, the GI50 in the experiment with SK-MEL-5, with MDA-N, in the experiment with OVCAR-8, in the experiment on A498, in the experiment with EKVX and in the experiment with PC-3 was > 10 µM (inactive) each time. In addition, in the experiment with T47D, the GI50 is > 10 µM (inactive).
For the compound `COC1C(O)C(C)OC(O[C@H]2CC[C@@]3(C)C(CC[C@@H]4[C@@H]3CC[C@]3(C)[C@@H](C(C)OC5OC(CO)C(O)C(O)C5O)CC[C@]43O)C2)C1O` (stereo partly drawn), the GI50 in the experiment with NCI/ADR-RES, in the experiment with A549, in the experiment with OVCAR-4, in the experiment with UACC-62, in the experiment on HCC 2998 and in the experiment with SF-539 was > 25 µM (inactive) throughout. The GI50 in the experiment with CCRF-CEM, with OVCAR-5, in the experiment on IGROV-1, in the experiment with NCI-H522, in the experiment on HOP-92 and with SK-MEL-5 was > 25 µM (inactive) each time. Further, the GI50 in the experiment on MDA-N, in the experiment with Hs-578T, in the experiment on OVCAR-8, in the experiment with A498, in the experiment with EKVX and in the experiment on PC-3 was > 25 µM (inactive) each time.
On to `COc1ccccc1C(C1=C(O)COC1=O)c1cc2c(cc1OC(C)=O)OCO2` (stereo not drawn), for which the GI50 with NCI/ADR-RES, in the experiment with A549, in the experiment on OVCAR-4, with UACC-62, with HCC 2998 and with SF-539 was > 100 µM (inactive) each time. Moreover, the GI50 with CCRF-CEM, in the experiment on OVCAR-5, with IGROV-1, in the experiment with SK-MEL-5, in the experiment with MDA-N and in the experiment on Hs-578T was > 100 µM (inactive) in each case. In addition, the GI50 with OVCAR-8, in the experiment with A498, with EKVX and with PC-3 was > 100 µM (inactive) each time.
Regarding `Cn1c(=N)n[n+]([O-])c2ccccc21`, the GI50 was 7.38 µM (inactive) in the experiment on A549; 2.48 µM (inactive) with OVCAR-4; 1.09 µM (active) in the experiment on UACC-62; 1.99 µM (inactive) in the experiment with SF-539; 3.01 µM (inactive) with CCRF-CEM; 2.25 µM (inactive) in the experiment with OVCAR-5. Moreover, the GI50 in the experiment on IGROV-1 was 3.59 µM (inactive); in the experiment with NCI-H522 it was 3.72 µM (inactive); in the experiment on SK-MEL-5 it was 1.83 µM (inactive); with MDA-N it was 1.9 µM (inactive); in the experiment on OVCAR-8, 13 µM (inactive); with EKVX, 7.69 µM (inactive). The GI50 in the experiment with PC-3 was 5.6 µM (inactive).
In the case of `CCOc1cccc2cccnc12`, the GI50 with A549, in the experiment with OVCAR-4, in the experiment with UACC-62, with HCC 2998, in the experiment with SF-539 and in the experiment on CCRF-CEM was > 100 µM (inactive) each time. In addition, the GI50 with OVCAR-5, with IGROV-1, in the experiment with NCI-H522, in the experiment on HOP-92, in the experiment on SK-MEL-5 and in the experiment on OVCAR-8 was > 100 µM (inactive) throughout. Besides, the GI50 in the experiment with EKVX was > 100 µM (inactive).
Take `CC(C)(C)OC/C=C1\C(=O)O[C@H]2C[C@@H](O[Si](C)(C)C(C)(C)C)C[C@@H]12`: the GI50 was 88.1 µM (inactive) in the experiment with NCI/ADR-RES; 69.2 µM (inactive) in the experiment with A549; 92.3 µM (inactive) in the experiment with OVCAR-4; > 100 µM (inactive) in the experiment on HCC 2998; 33.9 µM (inactive) in the experiment with CCRF-CEM; > 100 µM (inactive) with OVCAR-5. Moreover, the GI50 with IGROV-1 is > 100 µM (inactive); in the experiment on NCI-H522 it was 33.5 µM (inactive); in the experiment on HOP-92, 36.4 µM (inactive); in the experiment with SK-MEL-5, > 100 µM (inactive); with MDA-N, 90.4 µM (inactive); with OVCAR-8 it was 81.1 µM (inactive). In addition, the GI50 in the experiment with A498 is > 100 µM (inactive); in the experiment with EKVX it was > 100 µM (inactive); in the experiment on PC-3, 66.5 µM (inactive); in the experiment on T47D, 27.9 µM (inactive).
